Reference: patent US11464779B2, “Pharmaceutical formulation of palbociclib and a preparation method thereof” (Shenzhen Pharmacin Co., Ltd., priority 2016, dated 2022)

Legend:
[1] = co-dissolution of API of palbociclib and acidic auxiliary material in a solvent; format: physicochemical; conditions: co-dissolved with pharmaceutically acceptable acidic auxiliary material; solvent e.g. water
Text: The present invention also provides a method for the preparation of a solid dispersion, comprising: mixing palbociclib with an acidic auxiliary material; adding a solvent (including but not limited to water, ethanol, acetone and a mixture thereof, preferably water or a mixture thereof with other solvents, e.g. the mixture of water and ethanol, the mixture of water and acetone, etc.) for dissolving or dispersing; adding a hydrophilic high-molecular material, dissolving or dispersing evenly; and removing the solvent by heating, for example, evaporating the solvent to dry by vacuum drying or heating drying or freeze drying or other drying ways, in order to achieve the purpose of dispersing the drug in the high-molecular solid carrier to a high degree, so as to prepare the solid dispersion.
In the preparation of the solid dispersion of the present invention, the concentration of the API of palbociclib in the solvent (e.g., water) can be up to 50 mg/ml or more, thereby improving the preparation efficiency of the solid dispersion.

[2] = according to WO2005/005426; cited from earlier work
[3] = dynamic solubility test in buffer at pH 6.0 with stirring; format: physicochemical; conditions: phosphate buffer pH 6.0, stirring for 60 minutes
Procedure: 62.5 mg of the solid dispersion prepared in Example 3 (containing 12.5 mg of the API of palbociclib in proportion) and 12.5 mg of the API of palbociclib were weighed separately, placed into two 100 ml beakers, respectively, and marked with T1 and T2. 90 ml of phosphate buffer (pH 6.0) was added to the two beakers respectively and a magnetic stir bar was placed therein. The two beakers were placed on a magnetic stirrer separately. 1 ml of the solution was removed separately from each of the beakers at the time points of 5, 10, 20, 40, and 60 minutes and filtered through a 0.45 μm micro PES polyethersulfone filter membrane. The filtrate was analyzed by high performance liquid chromatography, the content of the API of palbociclib was determined and the dissolution percentage was calculated.

concentration of the API of palbociclib in the solvent [1]: ≥ 50000 µg/mL | dynamic solubility (dissolution percentage) [3]: 58%
Compound: CC(=O)c1c(C)c2cnc(Nc3ccc(N4CCNCC4)cn3)nc2n(C2CCCC2)c1=O [API of palbociclib, palbociclib]
solubility in water [2]: poor
